In PMC7305224, “Mutually stabilizing interactions between proto-peptides and RNA” (Nature Communications, 2020):

Legend:
[1] = system: H26a RNA (5′-rArUrGrArGrUrArArCrCrGrUrArArGrGrUrGrArArArUrU-3′); experiment: RNA thermal denaturation (Tm) by UV hyperchromicity, H26a RNA hairpin; type: binding
Procedure: Prior to Tm analyses, RNA samples were annealed in the appropriate buffer by heating to 75 °C and slowly cooling to room temperature. Depsipeptide/peptide was added to the annealed RNA and incubated at 4 °C for 20 min prior to carrying out the analysis. For analyses involving dry-down reaction mixtures, the Tm was determined by monitoring fluorescence increase upon melting of a fluorophore/quencher-labeled RNA duplex (5′-rCrGrArUrUrUrArGrCrG-/3IABkFQ/-3′ and 3′-rGrCrUrArArArUrCrGrC-FAM-5′) using a BioRad CFX Connect rtPCR instrument with a heating ramp of 1 °C/min and 20 μL final sample volumes. For analyses involving pure, synthetic compounds, the Tm of the RNA was determined by monitoring UV hyperchromicity at 260 nm using a Varian Cary Bio-100 spectrophotometer, with a heating ramp of 1 °C/min and 0.5- or 1-cm pathlength cells. The following RNA sequences were used: RNA duplex 1 = 5′-rCrGrCrUrArArArUrCrG-3′ and 5′-rCrGrArUrUrUrArGrCrG-3′; RNA duplex 2 = 5′-rArArArArUrUrUrArUrArUrUrArUrUrA-3′ and 5′-rUrArArUrArArUrArUrArArArUrUrUrU-3′; RNA duplex 3 = 5′-rArArCrGrUrArUrArCrGrUrU-3′ (palindromic); and H26a RNA = 5′-rArUrGrArGrUrArArCrCrGrUrArArGrGrUrGrArArArUrU-3′. RNA was present in each assay at a final concentration of 2.5 μM of the folded structure (2.5 μM each strand for duplex 1 and duplex 2, 5.0 μM palindromic strand for duplex 3, 2.5 μM strand for H26a RNA). Tm values were determined by nonlinear fitting of the melting curves using GraphPad Prism 8.2.1 for duplex 1 and H26a, or by finding the maximum of the first derivative of the curve using the Varian Cary Bio-100 software for duplex 2 and duplex 3. Both methods of determining the Tm gave similar values for a given denaturation curve.

[2] = system: single-stranded 10mer RNA (5′-rCrGrArUrUrUrArGrCrG-3′); experiment: Depsipeptide hydrolysis assay with single-stranded RNA; type: physicochemical; details: 25 μM depsipeptide, single-stranded 10mer RNA 100 µM, 37 °C, pH 7.3 buffer, HPLC
Procedure: To determine the extent of depsipeptide hydrolysis, the depsipeptide (25 μM) was incubated at 37 °C in buffer (100 mM HEPES, 10 mM NaCl, pH 7.3) in the presence or absence of 10mer RNA duplex 1 (5′-rCrGrArUrUrUrArGrCrG-3′ and 3′-rGrCrUrArArArUrCrGrC-5′) at various concentrations, or with single-stranded RNA (5′-rCrGrArUrUrUrArGrCrG-3′, 100 μM), for up to 100 h. Prior to adding depsipeptide to the reaction from its stock solution, the RNA was annealed by heating to 75 °C for 5 min, and then slowly cooling to room temperature. Reaction aliquots were quenched using 3% TFA and frozen or immediately analyzed by HPLC (270 nm). The relative concentrations of intact and hydrolyzed depsipeptide were quantified by integrating the corresponding peaks in HPLC traces. The kinetic profiles of depsipeptide hydrolysis were fit using SimFit-32 (provided by G. von Kiedrowski) according to the reaction scheme shown in Fig. 5a.

increase of depsipeptide lifetime by single-stranded RNA [2]: roughly fivefold
Substance: Aba-Gly-Ala-Dab-Lys-Ala-Dab-Lys-lac-Dab-Lys-Ala-Dab-Lys-NH2 [compound 9]
H26a RNA Tm ([1]; observed Tm with peptide/depsipeptide 100 µM, pH 7.0, RNA alone 53.4 ± 0.5, mean ± SD of 2-4 independent experiments): 64.9 ± 0.7 °C
H26a RNA ΔTm ([1]; peptide/depsipeptide 100 μM, RNA 2.5 μM strand, pH 7.0, 10 mM phosphate, 100 mM NaCl, mean of 2–4 replicates): 11.5 °C
